Read-outs that look alike come from different tables or passages of the source.
Tests used:
[1] = test system: panel of human normal cell lines; assay: MTT cytotoxicity of anticancer agents on normal cell lines, alone and with Compound I; conditions: Homo sapiens, read-out: IC50 (average)
Protocol: The cytotoxicity of anticancer agents was studied using a panel of human normal cell lines alone and with the combination of Compound I of the present invention. The cytotoxicity effect was determined by MTT assay. The following cell lines were used: Human epidermal keratinocytes cells (HaCaT), Human dermal fibroblast (HDF), Human bone marrow mesenchymal stem cells (HBMSCs), Human normal hepatocytes cells (THLE2), Human cardiac cells (AC-16), Human intestinal epithelial cells (HIEC-6), Human neuronal cells (SHSY-5Y), Human vascular Endothelial cells (HuVECs), Human lung epithelial cells (Calu-3), Human lung fibroblast (MRC 5).
Next, the cells were treated with anticancer agents in combination with Compound I of the present invention.

[2] = test system: xenograft nude mice models (triple-negative breast cancer, pancreatic, liver, colon cancer); conditions: mouse, in vivo
[3] = test system: xenograft nude mice models (triple-negative breast cancer, pancreatic, liver, colon cancer); assay: In vivo metastasis / stage IV tumor studies in xenograft nude mice versus standard drugs
PANC-1 xenograft = PANC-1 xenograft mouse model; type: in vivo; conditions: day 5 to day 30; 25 mg/kg gemcitabine, 10 mg/kg Compound I
Protocol: Study Design: A PANC-1 xenograft mouse model was carried out according to the experimental design described in FIG. 21A. Tumor volume was monitored over a 30-day period upon administration of PBS alone (vehicle control), 25 mg/kg gemcitabine, and 10 mg/kg Compound I.

[4] = test system: Pancreatic adenocarcinoma cells (PANC); assay: MTT cell viability of pancreatic cancer cells; type: cell-based, Human; conditions: Homo sapiens, Pancreatic cancer cell
Protocol: (§1) The synthesized compounds of Formula 1-4 were evaluated for cell proliferation, apoptosis, cell cycle arrest, the generation of reactive oxygen species and calcium were measured using MTT assay and flow cytometry, respectively. The expression of apoptosis- and proliferation-related proteins was determined by western blotting. The effect of molecules on apoptosis-related mRNA expression in cancer cells was detected by RT-PCR.
(§2) Changes in cell morphology were detected by the presence of cell membrane blebbing, chromatin condensation, and formation of apoptotic bodies (FIG. 10A).

normal pancreatic cells = assay: Viability of normal pancreatic cells; type: cell-based, Human; conditions: at 6 h
Protocol: as §1, §2

Question: How did the IC50 [1] turn out when `COc1cccc2c1C(=O)c1c(O)c3c(c(O)c1C2=O)C[C@@](O)(C(=O)CO)C[C@@H]3O[C@H]1C[C@H](N)[C@H](O)[C@H](C)O1` [Doxorubicin] was run?
Answer: 12.9 to 40.5 µM

Question: Which Toxicity [2] does the source give for `Nc1cccc2c1CN(C1CCC(=O)NC1=O)C2=O` (stereo not shown) [Revlimid] here?
Answer: Cardiotoxicity, Hepatotoxicity, Toxicity to vital organs and normal tissues

Question: What about the mortality ([3]; nude, mouse, in vivo) of the same compound?
Answer: 100%

Question: And the mortality ([3]; treating stage IV cancer)?
Answer: 100%

Question: With `CCN(CCO)CCCC(C)Nc1ccnc2cc(Cl)ccc12` (stereo not shown) [Hydroxychloroquine] as the compound, how does the IC50 [1] read?
Answer: 12.9 to 40.5 µM

Question: `Nc1ccn([C@@H]2O[C@H](CO)[C@@H](O)C2(F)F)c(=O)n1` [Gemcitabine] was tested. Which Toxicity [2] did it give?
Answer: Developed

Question: What about the IC50 [1] of the same compound?
Answer: 12.9 to 40.5 µM

Question: And the “CSCs (target on CSCs population)” value ([3]; mouse, in vivo)?
Answer: 5% Target on

Question: What about the mortality ([3]; nude, mouse, in vivo) of the same compound?
Answer: 50%

Question: What about the mortality ([3]; treating stage IV cancer) of the same compound?
Answer: 50%

Question: What about the tumor volume (PANC-1 xenograft) of the same compound?
Answer: steadily increases

Question: How did the Toxicity [2] turn out when `O=c1[nH]cc(F)c(=O)[nH]1` [5-Fluorouracil] was run?
Answer: Cardiotoxicity, Hepatotoxicity

Question: What about the IC50 [1] of the same compound?
Answer: 12.9 to 40.5 µM

Question: What about the “Antioxidant Activity (increased antioxidant parameters)” value ([3]; mouse, in vivo) of the same compound?
Answer: 10% of

Question: And the “Tumor volume (reduction / changes)” value ([3]; mouse, in vivo)?
Answer: 35%

Question: And the mortality ([3]; nude, mouse, in vivo)?
Answer: 70%

Question: What about the mortality ([3]; treating stage IV cancer) of the same compound?
Answer: 70%

Question: And the cytotoxicity at 10 µM ([4]; 3 h, read-out: decrease in viable cells)?
Answer: 30.21 ± 0.21%

Question: What about the IC50 ([4]; PANC cells, after 24 hours of exposure) of the same compound?
Answer: 5.21 ± 0.19 µM

Question: And the Toxicity (normal pancreatic cells)?
Answer: 40.32±0.98%

Question: Which “Metastasis (prevention)” value ([3]; mouse, in vivo) does the source give for “Avastin: current treatment standard drug, Inhibition of VEGF” here?
Answer: 10%

Question: What about the Toxicity ([3]; mouse, in vivo) of the same compound?
Answer: Toxic to vital

Question: And the “Tumor volume (reduction / changes)” value ([3]; mouse, in vivo)?
Answer: 20%

Question: What about the mortality ([3]; mouse, in vivo) of the same compound?
Answer: 60%

Question: What about the mortality ([3]; treating stage IV cancer) of the same compound?
Answer: 60%

Question: Which IC50 [1] does the source give for `CC[C@]1(O)C[C@H]2CN(CCc3c([nH]c4ccccc34)[C@@](C(=O)OC)(c3cc4c(cc3OC)N(C=O)[C@H]3[C@@](O)(C(=O)OC)[C@H](OC(C)=O)[C@]5(CC)C=CCN6CC[C@]43[C@@H]65)C2)C1` [Vincristine] here?
Answer: 12.9 to 40.5 µM

Question: `CCN(CC)CCCC(C)Nc1ccnc2cc(Cl)ccc12` (stereo not shown) [Chloroquine] was tested. Which IC50 [1] did it give?
Answer: 12.9 to 40.5 µM

Question: `CCc1c2c(nc3ccc(OC(=O)N4CCC(N5CCCCC5)CC4)cc13)-c1cc3c(c(=O)n1C2)COC(=O)[C@]3(O)CC` [Irinotecan] was tested. Which IC50 [1] did it give?
Answer: 12.9 to 40.5 µM
